# Experimental data as given in patent publication US8048873B2, “Synergistic pharmaceutical combination for the prevention or treatment of diabetes” (N-Gene Research Laboratories, Inc., priority 2001, dated 2011).
# Tested on: New Zealand white rabbits
# Assay: Hyperinsulinaemic euglycaemic glucose clamp studies (insulin sensitivity by glucose infusion rate at steady state)
# Assay type: in vivo, rabbit
# Conditions: measured on 6th day
# Method: Adult male New Zealand white rabbits weighing 3-3.2 kg, housed in an animal room (12-hour light/dark periods a day, temperature of 22-25° C., relative humidity of 50-70%) with one animal per pen, fed commercial laboratory chow and tap water ad libitum, were used throughout. The animals underwent surgery after a two-week adaptation period.
# Surgery was performed under aseptic conditions. The rabbits were anaesthetized with an intravenous bolus of 10 mg/kg diazepam (Sigma, St. Louis, Mo., USA) and 5 mg/kg ketamine (EGIS Pharmaceuticals Ltd., Budapest, Hungary). […] Polyethylene catheters were inserted into two major branches of the jugular vein and the left carotid artery. The catheters were exteriorised through the back of the neck. These lines were kept patent by filling with sodium heparin solution (100 IU/ml).
# Hyperinsulinaemic Euglycaemic Glucose Clamp Studies
# Blood samples (0.3 ml) were taken from the arterial cannula for blood glucose concentration at 10 min intervals. […] When blood glucose had stabilized for at least 30 min, we defined this condition as steady state. In the steady state, additional blood samples (0.5 ml) were taken for plasma insulin determination at 10-min intervals. The glucose infusion rate (mg/kg/min) during steady state was used to characterize insulin sensitivity [DeFronzo R. A. et al., Am. […] The test compound(s) was/were administered to healthy and hypercholesterolaemic animals, respectively, perorally, in a single dose, daily, for five days, and the glucose infusion rates determined on the 6th day were averaged within each test group consisting of 6 animals. One group of the healthy and one of the hypercholesterolaemic animals was used as the control.
# It is favourable that a higher amount of glucose should be needed at the given constant blood glucose level which indicates the enhanced effect of insulin.
SMILES,"Insulin sensitivity as characterized by the glucose infusion rate during steady state (Table 2, HC (hypercholesterolaemic) animals, troglitazone 75 mg/kg daily dose p.o. for five days) [mg/kg/min]","Insulin sensitivity as characterized by the glucose infusion rate during steady state (Table 2, normal (healthy) animals, troglitazone 75 mg/kg daily dose p.o. for five days) [mg/kg/min]","Insulin sensitivity as characterized by the glucose infusion rate during steady state (Table 1, HC (hypercholesterolaemic) animals, metformin 100 mg/kg daily dose p.o. for five days) [mg/kg/min]","Insulin sensitivity as characterized by the glucose infusion rate during steady state (Table 1, normal (healthy) animals, metformin 100 mg/kg daily dose p.o. for five days) [mg/kg/min]"
"Cc1c(C)c2c(c(C)c1O)CCC(C)(COc1ccc(CC3SC(=O)NC3=O)cc1)O2 (racemic) [Troglitazone, (±)-5-[[4-[(3,4-dihydro-6-hydroxy-2,5,7,8-tetramethyl-2H-1-benzopyran-2-yl)methoxy]-phenyl]methyl]-2,4-thiazolidinedione]",14.1 ± 1.33,14.3 ± 0.08,–,–
"CN(C)C(=N)N=C(N)N [Metformin, N,N-dimethylimidocarbonimidic diamide]",–,–,11.7 ± 0.87,15.8 ± 0.83
